From patent US20110172296A1, “MODULATION OF TRANSFORMING GROWTH FACTOR-BETA 1 EXPRESSION” (priority 2010, published 2011)
Several values for one entry are separate records, joined by “and”; a condition that tells them apart may be missing. Equal entries are not always repeated. In the oligonucleotide strings, read from the 5' end, every base follows the letter of its sugar. An asterisk marks phosphorothioate; unmarked linkages are phosphodiester. Other units and linkages are bracketed, terminal groups are in braces. A string of capitals states the bases alone. e = 2'-O-(2-methoxyethyl) (MOE); [5mC] = 5-methylcytosine; d = 2'-deoxy (DNA)

Tested on: human TGF-beta1 mRNA
Assay: Antisense inhibition of human TGF-beta1 mRNA in HuVEC cells, single 10 nM dose, Lipofectamine 2000 (Example 2)
Type: cell-based
Details: for % inhibition: 10 nM oligonucleotide, HuVEC, relative to untreated control cells; for inhibition of a TGF-beta1 mRNA: threshold lists of Oligo IDs, 10 nM
Experimental: Antisense oligonucleotides targeted to a TGF-beta1 nucleic acid were tested for their effects on TGF-beta1 mRNA in vitro. Cultured HuVEC cells at a density of 5,000 cells per well were transfected using Lipofectamine™ 2000 reagent with 10 nM antisense oligonucleotide for 4 hours. After a recovery period of approximately 24 hours, RNA was isolated from the cells and TGF-beta1 mRNA levels were measured by quantitative real-time PCR. TGF-beta1 mRNA levels were adjusted according to total RNA content, as measured by RIBOGREEN®. Results are presented as percent inhibition of TGF-beta1, relative to untreated control cells.
The chimeric antisense oligonucleotides in Tables 1 and 2 were designed as 2-13-5 MOE gapmers. Antisense molecules with this motif targeting TGF-beta1 are unique, and represent a novel chemical structure for an ASO directed against this target. The gapmers are 20 nucleotides in length, wherein the central gap segments are comprised of thirteen 2′-deoxynucleotides and are flanked on the 5′ side by wings comprising two nucleotides each and on the 3′ side by wings comprising five nucleotides each. Each nucleotide in the 5′ wing segment and each nucleotide in the 3′ wing segment has a 2′-MOE modification. The internucleoside linkages throughout each gapmer are phosphorothioate (P═S) linkages. All cytosine residues throughout each gapmer are 5-methylcytosines. “Target start site” indicates the 5′-most nucleotide to which the gapmer is targeted. “Target stop site” indicates the 3′-most nucleotide to which the gapmer is targeted. Each gapmer listed in Table 1 is targeted to SEQ ID NO: 1 (GENBANK Accession No. NM_000660.3). Each gapmer listed in Table 2 is targeted to SEQ ID NO: 2 (GENBANK Accession No. NT 011109.15 truncated from 14103000 to […]).

[1] = gapmers targeted to SEQ ID NO: 2
[2] = gapmers targeted to SEQ ID NO: 1

## 414090 (antisense eG*eA*dT*dT*d[5mC]*d[5mC]*dA*dA*dT*dG*dT*dT*dT*d[5mC]*dA*eG*e[5mC]*eT*eT*eT) [compound 414090]
[1]
  % inhibition: 80%
  inhibition of a TGF-beta1 mRNA: 60% and 65% and 70% and 75% and 80%

## 414100 (antisense eT*eT*d[5mC]*d[5mC]*dA*d[5mC]*dT*d[5mC]*dA*dA*dT*dG*dA*dA*dT*eG*eG*eA*eA*eA) [compound 414100]
[1]
  % inhibition: 48%

## 414089 (antisense eA*eA*dT*dT*d[5mC]*dT*dA*dG*d[5mC]*dA*dT*dT*d[5mC]*dT*dA*eG*eA*eA*eT*e[5mC]) [compound 414089]
[1]
  % inhibition: 18%

## 413988 (antisense eA*eA*dG*dT*d[5mC]*d[5mC]*dT*dG*d[5mC]*d[5mC]*dT*d[5mC]*d[5mC]*dT*d[5mC]*eG*e[5mC]*eG*eG*eG) [compound 413988]
[2]
  % inhibition: 63%
  inhibition of a TGF-beta1 mRNA: 60%

## 414000 (antisense eA*eA*dG*dG*dG*dT*d[5mC]*dT*dA*dG*dG*dA*dT*dG*d[5mC]*eG*e[5mC]*eG*eG*eG) [compound 414000]
[2]
  % inhibition: 75%
  inhibition of a TGF-beta1 mRNA: 60% and 65% and 70% and 75%

## 413975 (antisense eG*e[5mC]*dG*dG*d[5mC]*dA*dA*d[5mC]*dG*dG*dA*dA*dA*dA*dG*eT*e[5mC]*eT*e[5mC]*eA) [compound 413975]
[2]
  % inhibition: 73%
  inhibition of a TGF-beta1 mRNA: 60% and 65% and 70%

## 414031 (antisense eA*eT*dG*dT*d[5mC]*d[5mC]*dA*d[5mC]*dT*dT*dG*d[5mC]*dA*dG*dT*eG*eT*eG*eT*eT) [compound 414031]
[2]
  % inhibition: 66%
  inhibition of a TGF-beta1 mRNA: 60% and 65%

## 413996 (antisense eA*eA*dG*dT*d[5mC]*dT*dT*dT*dG*d[5mC]*dG*dG*dG*dA*dG*eG*e[5mC]*e[5mC]*eG*eG) [compound 413996]
[2]
  % inhibition: 51%

## 414111 (antisense eT*eT*dG*dA*dA*d[5mC]*dA*dA*dG*d[5mC]*d[5mC]*dG*dT*d[5mC]*dT*eA*eG*eG*eT*eG) [compound 414111]
[1]
  % inhibition: 81%
  inhibition of a TGF-beta1 mRNA: 60% and 65% and 70% and 75% and 80%

## 414004 (antisense eA*eG*dA*dA*dG*dG*dT*dG*dG*dG*dT*dG*dG*dT*d[5mC]*eT*eT*eG*eA*eA) [compound 414004]
[2]
  % inhibition: 70%
  inhibition of a TGF-beta1 mRNA: 60% and 65% and 70%

## 413967 (antisense eG*eA*dT*dG*dG*d[5mC]*d[5mC]*d[5mC]*dA*dG*dG*dG*d[5mC]*dG*d[5mC]*eG*eA*eA*eG*eG) [compound 413967]
[2]
  % inhibition: 64%
  inhibition of a TGF-beta1 mRNA: 60%

## 414052 (antisense eA*e[5mC]*dA*d[5mC]*dA*dT*dG*dT*dG*d[5mC]*dA*dT*dT*dT*dG*eT*eT*eG*eG*eG) [compound 414052]
[1]
  % inhibition: 52%

## 414109 (antisense eG*eG*d[5mC]*d[5mC]*dA*dA*dT*dT*dT*d[5mC]*d[5mC]*dA*dT*dT*dG*e[5mC]*eA*eT*e[5mC]*eT) [compound 414109]
[1]
  % inhibition: 80%
  inhibition of a TGF-beta1 mRNA: 60% and 65% and 70% and 75% and 80%

## 413998 (antisense eG*eG*dA*dA*dA*dA*dG*dT*d[5mC]*dT*dT*dT*dG*d[5mC]*dG*eG*eG*eA*eG*eG) [compound 413998]
[2]
  % inhibition: 13%

## 414105 (antisense eG*eA*dT*dA*dT*d[5mC]*dT*dA*dG*dA*dG*dG*dA*dA*dT*eA*eT*e[5mC]*eT*eA) [compound 414105]
[1]
  % inhibition: 27%

## 414011 (antisense e[5mC]*eG*d[5mC]*dG*dA*dT*d[5mC]*dT*dG*dG*dT*dA*d[5mC]*d[5mC]*dA*eG*eA*eA*eG*eG) [compound 414011]
[2]
  % inhibition: 85%
  inhibition of a TGF-beta1 mRNA: 60% and 65% and 70% and 75% and 80% and 85%

## 414073 (antisense e[5mC]*eT*dT*d[5mC]*d[5mC]*d[5mC]*d[5mC]*dA*dA*dA*d[5mC]*dA*dG*dG*d[5mC]*eT*eT*e[5mC]*e[5mC]*eA) [compound 414073]
[1]
  % inhibition: 65%
  inhibition of a TGF-beta1 mRNA: 60% and 65%

## 414080 (antisense eT*eT*dG*dA*d[5mC]*d[5mC]*dA*dA*dG*dA*d[5mC]*dA*dG*dA*dT*eG*eA*eG*e[5mC]*eT) [compound 414080]
[1]
  % inhibition: 54%

## 414082 (antisense eG*eA*dG*dA*dG*dG*dG*dA*dA*dG*d[5mC]*d[5mC]*dA*dG*dT*e[5mC]*eT*eG*eA*eG) [compound 414082]
[1]
  % inhibition: 19%

## 414002 (antisense eG*eG*dT*dG*dG*dG*dT*dG*dG*dT*d[5mC]*dT*dT*dG*dA*eA*eT*eA*eG*eG) [compound 414002]
[2]
  % inhibition: 80%
  inhibition of a TGF-beta1 mRNA: 60% and 65% and 70% and 75% and 80%

## 414069 (antisense e[5mC]*eT*dA*dT*dG*dA*dG*dT*dT*dA*dA*d[5mC]*dA*dT*dT*e[5mC]*e[5mC]*e[5mC]*eT*e[5mC]) [compound 414069]
[1]
  % inhibition: 62%
  inhibition of a TGF-beta1 mRNA: 60%

## 414067 (antisense eT*e[5mC]*d[5mC]*dT*dA*dG*dG*dA*dT*dG*d[5mC]*dA*dA*dA*dG*eA*eG*eT*e[5mC]*eT) [compound 414067]
[1]
  % inhibition: 71%
  inhibition of a TGF-beta1 mRNA: 60% and 65% and 70%

## 414118 (antisense eA*eA*dT*dG*d[5mC]*d[5mC]*d[5mC]*dA*dA*dG*dT*d[5mC]*d[5mC]*dT*d[5mC]*eA*e[5mC]*e[5mC]*eG*eT) [compound 414118]
[1]
  % inhibition: 73%
  inhibition of a TGF-beta1 mRNA: 60% and 65% and 70%

## 414006 (antisense eT*eA*d[5mC]*d[5mC]*dA*dG*dA*dA*dG*dG*dT*dG*dG*dG*dT*eG*eG*eT*e[5mC]*eT) [compound 414006]
[2]
  % inhibition: 85%
  inhibition of a TGF-beta1 mRNA: 60% and 65% and 70% and 75% and 80% and 85%

## 414065 (antisense eA*eA*dA*dT*dG*dA*dA*dG*dG*dG*dA*dG*dG*d[5mC]*dG*eA*eT*e[5mC]*eA*eG) [compound 414065]
[1]
  % inhibition: 24%

## 414121 (antisense eG*e[5mC]*dA*dA*dT*dG*d[5mC]*dT*dT*dA*dA*dG*dA*d[5mC]*dA*eA*eG*e[5mC]*e[5mC]*eT) [compound 414121]
[1]
  % inhibition: 62%
  inhibition of a TGF-beta1 mRNA: 60%

## 414093 (antisense eA*eA*d[5mC]*dA*dT*dT*d[5mC]*d[5mC]*dA*dA*d[5mC]*dA*d[5mC]*dT*dG*eA*eG*eT*eT*e[5mC]) [compound 414093]
[1]
  % inhibition: 68%
  inhibition of a TGF-beta1 mRNA: 60% and 65%

## 414077 (antisense eT*e[5mC]*d[5mC]*dA*dG*dG*d[5mC]*d[5mC]*dT*dT*dT*dG*d[5mC]*dA*d[5mC]*eA*eG*eG*e[5mC]*eT) [compound 414077]
[1]
  % inhibition: 71%
  inhibition of a TGF-beta1 mRNA: 60% and 65% and 70%

## 414029 (antisense eG*eA*dG*d[5mC]*dT*d[5mC]*dT*dG*dA*dT*dG*dT*dG*dT*dT*eG*eA*eA*eG*eA) [compound 414029]
[2]
  % inhibition: 73%
  inhibition of a TGF-beta1 mRNA: 60% and 65% and 70%

## 413984 (antisense e[5mC]*e[5mC]*dG*d[5mC]*dG*d[5mC]*d[5mC]*dT*d[5mC]*d[5mC]*dG*dG*d[5mC]*dT*d[5mC]*e[5mC]*e[5mC]*eA*eG*e[5mC]) [compound 413984]
[2]
  % inhibition: 71%
  inhibition of a TGF-beta1 mRNA: 60% and 65% and 70%

## 414103 (antisense eA*eT*dT*d[5mC]*dA*dA*dG*dT*dA*dA*dG*dG*dT*d[5mC]*dT*eA*e[5mC]*eA*e[5mC]*eA) [compound 414103]
[1]
  % inhibition: 58%

## 414053 (antisense eT*eT*dG*dG*d[5mC]*d[5mC]*d[5mC]*dG*dG*dA*dG*dG*dT*dT*dA*e[5mC]*eT*e[5mC]*eA*eG) [compound 414053]
[1]
  % inhibition: 52%

## 414094 (antisense eT*e[5mC]*dA*dA*dG*dA*dG*dG*dT*dT*d[5mC]*dA*dA*dA*d[5mC]*eT*eG*eA*e[5mC]*eA) [compound 414094]
[1]
  % inhibition: 67%
  inhibition of a TGF-beta1 mRNA: 60% and 65%

## 414064 (antisense eT*eG*dT*dG*dA*d[5mC]*d[5mC]*dT*dT*dG*dA*dG*dG*dA*dA*eG*eT*eG*eG*eT) [compound 414064]
[1]
  % inhibition: 61%
  inhibition of a TGF-beta1 mRNA: 60%
